# Source: ChEMBL document CHEMBL1201862, “PubChem BioAssay data set” (2004)
#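 All cell lines were grown in 96-well plates and treated with compound for 48 hours. At the GI50, growth is halved.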 Calls of active or inactive are those of the source. Cut-off read from the data, not from the text of the source: active = GI50 up to about 1.1 µM and inactive = higher.
# How the values were obtained:
# Experiment in all cases: NCI anticancer screen, dose series, 48 h
# 786-0 = system: 786-0
# A498 = system: A498
# A549 = system: A549
# ACHN = system: ACHN
# CAKI-1 = system: CAKI-1
# CCRF-CEM = system: CCRF-CEM
# COLO 205 = system: COLO 205
# DLD-1 = system: DLD-1
# DMS-114 = system: DMS-114
# DMS-273 = system: DMS-273
# EKVX = system: EKVX
# HCC 2998 = system: HCC 2998
# HCT-116 = system: HCT-116
# HCT-15 = system: HCT-15
# HL-60 = system: HL-60
# HOP-18 = system: HOP-18
# HOP-62 = system: HOP-62
# HT-29 = system: HT-29
# IGROV-1 = system: IGROV-1
# K562 = system: K562
# KM-20L2 = system: KM-20L2
# KM12 = system: KM12
# LOX IMVI = system: LOX IMVI
# LXFL 529 = system: LXFL 529
# M14 = system: M14
# M19-MEL = system: M19-MEL
# MOLT-4 = system: MOLT-4
# Malme-3M = system: Malme-3M
# NCI-H226 = system: NCI-H226
# NCI-H23 = system: NCI-H23
# NCI-H460 = system: NCI-H460
# NCI-H522 = system: NCI-H522
# OVCAR-3 = system: OVCAR-3
# OVCAR-4 = system: OVCAR-4
# OVCAR-5 = system: OVCAR-5
# RPMI-8226 = system: RPMI-8226
# RXF 393 = system: RXF 393
# RXF 631 = system: RXF 631
# SF-268 = system: SF-268
# SF-295 = system: SF-295
# SF-539 = system: SF-539
# SK-MEL-28 = system: SK-MEL-28
# SK-MEL-2 = system: SK-MEL-2
# SK-MEL-5 = system: SK-MEL-5
# SK-OV-3 = system: SK-OV-3
# SN12C = system: SN12C
# SNB-19 = system: SNB-19
# SNB-75 = system: SNB-75
# SNB-78 = system: SNB-78
# SR = system: SR
# SW-620 = system: SW-620
# TK-10 = system: TK-10
# U-251 = system: U-251
# UACC-257 = system: UACC-257
# UACC-62 = system: UACC-62
# UO-31 = system: UO-31
smiles,measurement,setting,value
C=CCCCCCCCCCCCC1CCC(CC)N1 (stereo unspecified),GI50,786-0,9.1 µM (inactive)
same,GI50,A498,19.5 µM (inactive)
same,GI50,A549,10.3 µM (inactive)
same,GI50,ACHN,15.7 µM (inactive)
same,GI50,CAKI-1,11.2 µM (inactive)
same,GI50,CCRF-CEM,8.3 µM (inactive)
same,GI50,COLO 205,3.37 µM (inactive)
same,GI50,DLD-1,3.72 µM (inactive)
same,GI50,DMS-114,5 µM (inactive)
same,GI50,DMS-273,2.33 µM (inactive)
same,GI50,EKVX,15.5 µM (inactive)
same,GI50,HCC 2998,3.37 µM (inactive)
same,GI50,HCT-116,6.04 µM (inactive)
same,GI50,HCT-15,3.4 µM
same,GI50,HL-60,3.05 µM (inactive)
same,GI50,HOP-18,12.6 µM (inactive)
same,GI50,HOP-62,12.3 µM (inactive)
same,GI50,HT-29,3.67 µM (inactive)
same,GI50,IGROV-1,10.1 µM (inactive)
same,GI50,K562,4.7 µM (inactive)
same,GI50,KM-20L2,4.04 µM (inactive)
same,GI50,KM12,3.87 µM (inactive)
same,GI50,LOX IMVI,9.66 µM (inactive)
same,GI50,LXFL 529,12.7 µM (inactive)
same,GI50,M14,12.1 µM (inactive)
same,GI50,M19-MEL,5.15 µM (inactive)
same,GI50,MOLT-4,4.06 µM (inactive)
same,GI50,Malme-3M,16.3 µM (inactive)
same,GI50,NCI-H226,28.5 µM (inactive)
same,GI50,NCI-H23,14.4 µM (inactive)
same,GI50,NCI-H460,17.7 µM (inactive)
same,GI50,NCI-H522,3.78 µM (inactive)
same,GI50,OVCAR-3,9.44 µM (inactive)
same,GI50,OVCAR-4,4.79 µM (inactive)
same,GI50,OVCAR-5,10.6 µM (inactive)
same,GI50,RPMI-8226,8.28 µM (inactive)
same,GI50,RXF 393,4.86 µM (inactive)
same,GI50,RXF 631,6.19 µM (inactive)
same,GI50,SF-268,20.6 µM (inactive)
same,GI50,SF-295,13.8 µM (inactive)
same,GI50,SF-539,10.6 µM (inactive)
same,GI50,SK-MEL-28,15.7 µM (inactive)
same,GI50,SK-MEL-2,13.2 µM (inactive)
same,GI50,SK-MEL-5,10.2 µM (inactive)
same,GI50,SK-OV-3,15.1 µM (inactive)
same,GI50,SN12C,11.5 µM (inactive)
same,GI50,SNB-19,15.5 µM (inactive)
same,GI50,SNB-75,14.4 µM (inactive)
same,GI50,SNB-78,14.9 µM (inactive)
same,GI50,SR,2.47 µM (inactive)
same,GI50,SW-620,11.4 µM (inactive)
same,GI50,TK-10,16.8 µM (inactive)
same,GI50,U-251,10.9 µM (inactive)
same,GI50,UACC-257,13.9 µM (inactive)
same,GI50,UACC-62,14.2 µM (inactive)
same,GI50,UO-31,11.2 µM (inactive)
